TGI data for twelve compounds are collected here from PubChem BioAssay (NCI).

Test systems include NCI-H23 lung; CCRF-CEM leukemia; 786-0 renal; HT29 colon; T-47D breast; IGROV1 ovarian; HCT-116 colon; A498 renal; SK-MEL-5 melanoma; DU-145 prostate; COLO 205 colon.
Assay in all cases: NCI anticancer screen, dose series, 48 h

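Where inhibition never reached the appropriate level, the endpoint shown equals the highest concentration tested. Otherwise, values were interpolated linearly from a five-concentration, 48-hour dose response in 96-well plates. TGI is the concentration that stops growth completely.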 Where a SMILES comes first, the peptide text is derived from it. [ ]: non-standard residue; d: D form. The star is where a group is joined. ξ: configuration not given here. Propanoyl(3-(4-MeO-Ph)) = COc1ccc(CCC(=O)*)cc1; Thr(3ξ) = CC(O)[C@H](N)C(=O)O; dNMeL = CN[C@H](CC(C)C)C(=O)O; ξLac = CC(O)C(=O)O Bounds are passed on as bounds.

In the case of `COc1ccc(-c2nnc(CCCCCCCCc3nnc(-c4ccc(OC)cc4)n3N)n2N)cc1`, the TGI in the assay on NCI-H23 lung was greater than 100 µM; in the assay on CCRF-CEM leukemia, greater than 100 µM; with 786-0 renal, greater than 31.6 µM; in the assay with HT29 colon, greater than 100 µM; in the assay with T-47D breast it was greater than 100 µM; in the assay on IGROV1 ovarian, greater than 100 µM. Besides, the TGI with HCT-116 colon, in the assay with A498 renal, with SK-MEL-5 melanoma, with DU-145 prostate and in the assay on COLO 205 colon was greater than 100 µM throughout.
On to `COC(=O)C(Cc1ccccc1)NC(=O)c1ccc(CNC(=S)NCc2cccc(CNC(=S)NCc3ccccc3)c2)cc1` (configuration not stated), for which the TGI in the assay on NCI-H23 lung, with CCRF-CEM leukemia, with 786-0 renal, in the assay with HT29 colon, in the assay on T-47D breast and in the assay with IGROV1 ovarian was greater than 62.5 µM throughout. Also, the TGI in the assay on HCT-116 colon, in the assay on A498 renal, with SK-MEL-5 melanoma, in the assay on DU-145 prostate and with COLO 205 colon was greater than 62.5 µM each time.
`CCCC(=O)Nc1cc(/C=C/C(=O)N2CC(CCl)c3c2cc([N+](=O)[O-])c2ccccc32)n(C)c1` (configuration not stated): the TGI in the assay on NCI-H23 lung, in the assay on CCRF-CEM leukemia, in the assay with 786-0 renal, in the assay with HT29 colon, with T-47D breast and in the assay on IGROV1 ovarian was greater than 100 µM each time. Besides, the TGI in the assay on HCT-116 colon is greater than 100 µM; in the assay with A498 renal it was greater than 87.9 µM; with SK-MEL-5 melanoma it was greater than 100 µM; with DU-145 prostate it was greater than 100 µM; in the assay with COLO 205 colon, greater than 100 µM.
Regarding `CCOC(=O)C1=CC(C)(C(=O)OCC)Nc2c(nc(SC)n(C)c2=O)N1` (configuration not stated), the TGI with NCI-H23 lung, with CCRF-CEM leukemia, in the assay with 786-0 renal, in the assay with HT29 colon, with T-47D breast and with IGROV1 ovarian was greater than 10 µM each time. For the same compound, the TGI with HCT-116 colon, with A498 renal, with SK-MEL-5 melanoma, with DU-145 prostate and in the assay with COLO 205 colon was greater than 10 µM throughout.
Regarding `CCOc1cc2c(cc1O)CC[C@@H]1[C@@H]2CC[C@]2(C)C(OS(=O)OC3CC[C@@H]4[C@H]5CCc6cc(O)c(OCC)cc6[C@@H]5CC[C@@]34C)CC[C@@H]12` (some centres not stated), the TGI was 14 µM in the assay with NCI-H23 lung; greater than 100 µM with CCRF-CEM leukemia; greater than 34.3 µM in the assay with 786-0 renal; greater than 53.7 µM in the assay on HT29 colon; greater than 100 µM in the assay on T-47D breast; 25.8 µM with IGROV1 ovarian. For the same compound, the TGI in the assay with HCT-116 colon is greater than 39.6 µM; with A498 renal, 36.6 µM; in the assay with SK-MEL-5 melanoma, 3.84 µM; with DU-145 prostate, 11.5 µM; in the assay with COLO 205 colon, greater than 53.7 µM.
`c1ccc(CCN2CCN=C2Cc2ccccc2)cc1`: the TGI in the assay on NCI-H23 lung, in the assay with CCRF-CEM leukemia, in the assay on 786-0 renal, with HT29 colon, with T-47D breast and with IGROV1 ovarian was greater than 100 µM throughout. In addition, the TGI in the assay with HCT-116 colon, in the assay on A498 renal, in the assay with SK-MEL-5 melanoma, with DU-145 prostate and with COLO 205 colon was greater than 100 µM throughout.
In the case of `CCOC(=O)Cn1nnc2cc(Nc3nc4ccccc4nc3C(=O)OCC)ccc21`, the TGI in the assay on NCI-H23 lung, in the assay on CCRF-CEM leukemia, in the assay with 786-0 renal, in the assay on HT29 colon, in the assay on T-47D breast and in the assay on IGROV1 ovarian was greater than 100 µM each time. The TGI in the assay on HCT-116 colon, with A498 renal, in the assay on SK-MEL-5 melanoma, in the assay with DU-145 prostate and in the assay on COLO 205 colon was greater than 100 µM each time.
Take `COc1ccc(/C=N\NC(=O)Nc2cccc3ccccc23)cc1`: the TGI with NCI-H23 lung was greater than 100 µM; in the assay with CCRF-CEM leukemia it was greater than 100 µM; in the assay on 786-0 renal, 46.6 µM; with HT29 colon, greater than 100 µM; in the assay with T-47D breast it was 38.2 µM; in the assay on IGROV1 ovarian, greater than 100 µM. The TGI with HCT-116 colon was greater than 100 µM; with A498 renal, 51.6 µM; in the assay with SK-MEL-5 melanoma it was greater than 100 µM; with DU-145 prostate, greater than 100 µM; in the assay on COLO 205 colon, greater than 100 µM.
For the compound `COc1nc2ccc(CNc3ccc(C(=O)O)cc3)cc2nc1OC`, the TGI in the assay with NCI-H23 lung, with CCRF-CEM leukemia, in the assay on 786-0 renal, in the assay on HT29 colon, with T-47D breast and with IGROV1 ovarian was greater than 10 µM throughout. Besides, the TGI in the assay with HCT-116 colon, in the assay on A498 renal, in the assay with SK-MEL-5 melanoma, in the assay with DU-145 prostate and in the assay on COLO 205 colon was greater than 10 µM each time.
On to `S=c1nc2sc3c(c2c(Nc2ccc(Br)cc2)[nH]1)CCN(N1CCc2c(sc4nc(=S)[nH]c(Nc5ccc(Br)cc5)c24)C1)C3`, for which the TGI was greater than 50 µM in the assay on NCI-H23 lung; greater than 50 µM in the assay with CCRF-CEM leukemia; 15.5 µM with 786-0 renal; greater than 50 µM in the assay on HT29 colon; greater than 50 µM in the assay on T-47D breast; greater than 50 µM in the assay on IGROV1 ovarian. In addition, the TGI in the assay on HCT-116 colon was greater than 50 µM; in the assay on A498 renal it was 31.3 µM; in the assay with SK-MEL-5 melanoma, greater than 50 µM; with DU-145 prostate, greater than 50 µM; in the assay on COLO 205 colon it was greater than 50 µM.
With `Cc1[nH]c(=O)nc2nc3ccc(Cl)cc3c(NC(C)(CO)CO)c12`, the TGI in the assay with NCI-H23 lung, in the assay on CCRF-CEM leukemia, in the assay with 786-0 renal, with HT29 colon, in the assay with T-47D breast and in the assay on IGROV1 ovarian was greater than 100 µM each time. The TGI with HCT-116 colon, in the assay on A498 renal, in the assay on SK-MEL-5 melanoma, in the assay with DU-145 prostate and in the assay on COLO 205 colon was greater than 100 µM each time.
Regarding `COC(=O)[C@@H](NC(=O)[C@@H](CC(C)C)N(C)C(=O)[C@@H]1CCCN1C(=O)C(C)O)C(C)OC(=O)CCc1ccc(OC)cc1` (some centres not stated) (H-[ξLac]P[dNMeL][Thr(3ξ)](Propanoyl(3-(4-MeO-Ph)))-OMe), the TGI with NCI-H23 lung, with CCRF-CEM leukemia, with 786-0 renal, in the assay with HT29 colon, in the assay on T-47D breast and in the assay on IGROV1 ovarian was greater than 100 µM in each case. In addition, the TGI with HCT-116 colon, in the assay with A498 renal, with SK-MEL-5 melanoma, with DU-145 prostate and with COLO 205 colon was greater than 100 µM in each case.
